For 26 molecules, EC50 and Emax results are on record in patent publication US12319684B2 (Sanford Burnham Prebys Medical Discovery Institute, priority 2014, dated 2025).

This assay concerns the target T1, human apelin receptor (APJ, AGTRL-1, APLNR) (Homo sapiens, UniProt P35414).
T1 construct: host or cells: Chinese hamster ovary cells
T1 sequence (P35414 1-380): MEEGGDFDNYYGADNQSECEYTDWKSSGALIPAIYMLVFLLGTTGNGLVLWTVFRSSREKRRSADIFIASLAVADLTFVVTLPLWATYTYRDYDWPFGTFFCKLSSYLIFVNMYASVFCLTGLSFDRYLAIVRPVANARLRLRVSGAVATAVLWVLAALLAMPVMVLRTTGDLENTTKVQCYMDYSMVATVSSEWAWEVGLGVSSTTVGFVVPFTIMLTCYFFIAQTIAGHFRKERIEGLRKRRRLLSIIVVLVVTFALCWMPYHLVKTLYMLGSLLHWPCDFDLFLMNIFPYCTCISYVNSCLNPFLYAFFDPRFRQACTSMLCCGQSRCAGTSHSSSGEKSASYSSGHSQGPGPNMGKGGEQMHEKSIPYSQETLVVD
Put plainly: APJ cAMP cell-based assay (forskolin-stimulated CHO cells, enzyme fragment complementation). The conditions noted are these: for EC50: CHO cells expressing human APJ, forskolin-stimulated, 0.5 h incubation, 50% of control (apelin-13, 1 nM) response, read-out: APJ cAMP EC50; for Emax: CHO, 0.5 h, read-out: APJ cAMP % resp (efficacy). The protocol:
The assays disclosed herein were performed using cell lines from DiscoveRx, Inc.
Biological activity was determined in a cell-based assay. This assay detects activation of the receptor by reporting on intracellular cyclic adenosine monophosphate (cAMP) level. Chinese hamster ovary cells engineered to express a stably integrated human apelin receptor (APJ, AGTRL-1, APLNR), were plated into the wells of a microtiter plate. Cells were stimulated with forskolin to increase intracellular cAMP. Immediately following, compounds were added at a range of final concentrations 0.0-100 μM, in DMSO (not to exceed a final DMSO concentration of >1% v/v), and allowed to incubate with the cells for 0.5 h. At the end of the incubation, cells were lysed to stop APJ signaling, and cAMP was quantified using a commercially available assay kit that applies enzyme fragment complementation technology and bioluminescence, in a competitive ELISA format.
Compound efficacy (% resp) is reported as a percentage of the maximal apelin-13 response at 1 nM (control).

Where [1] appears, read: percentage of the maximal apelin-13 response at 1 nM (control).

Like-named read-outs stand apart in the source and are kept apart here.

A word on the EC50: it is the concentration that produces a half-maximal response. With `COc1ccccc1-n1c(SCc2cc(=O)n3cc(C)ccc3n2)nnc1-c1ccc(Br)o1` [Example 10, 2-[5-(5-Bromo-furan-2-yl)-4-(2-methoxy-phenyl)-4H-[1,2,4]triazol-3-ylsulfanylmethyl]-7-methyl-pyrido[1,2-a]pyrimidin-4-one], the EC50 amounted to 18.2 nM. Also, under setting [1], the Emax was found to be 150%.
For the molecule `COc1ccccc1-n1c(SCc2nc(=O)c3ccc(F)cc3[nH]2)nnc1-c1cccs1` [Example 63, 7-Fluoro-2-[4-(2-methoxy-phenyl)-5-thiophen-2-yl-4H-[1,2,4]triazol-3-ylsulfanylmethyl]-1H-quinazolin-4-one], the EC50 was determined as 125 nM. Moreover, the Emax under setting [1] was determined as 108%.
Taken in the same sequence, the figures for `COc1ccccc1-n1c(SCc2cc(=O)n3cc(Br)ccc3n2)nnc1-c1cccs1` [Example 46, 7-Bromo-2-[4-(2-methoxy-phenyl)-5-thiophen-2-yl-4H-[1,2,4]triazol-3-ylsulfanylmethyl]-pyrido[1,2-a]pyrimidin-4-one] were 7.8 nM and 117%.
As to `COc1ccccc1-n1c(SCc2cc(=O)n3cc(C)ccc3n2)nnc1-c1ccc(C#N)cc1` [Example 13, 4-[4-(2-Methoxy-phenyl)-5-(7-methyl-4-oxo-4H-pyrido[1,2-a]pyrimidin-2-ylmethylsulfanyl)-4H-[1,2,4]triazol-3-yl]-benzonitrile], the concentration giving a half-maximal response (EC50) turned out to be 1420 nM. Besides, the Emax under setting [1] was determined as 94%.
Take `COc1ccccc1-n1c(OCc2cc(=O)n3cc(C)ccc3n2)nnc1-c1cccs1` [Example 83, 2-(((4-(2-methoxyphenyl)-5-(thiophen-2-yl)-4H-1,2,4-triazol-3-yl)oxy)methyl)-7-methyl-4H-pyrido[1,2-a]pyrimidin-4-one]: the concentration giving a half-maximal response (EC50) is 45 nM. Besides, the Emax under setting [1] is 52%.
Turning to `Cc1ccc2nc(CSc3nnc(-c4cccs4)n3-c3cccc(Cl)c3)cc(=O)n2c1` [Example 28, 2-[4-(3-Chloro-phenyl)-5-thiophen-2-yl-4H-[1,2,4]triazol-3-ylsulfanylmethyl]-7-methyl-pyrido[1,2-a]pyrimidin-4-one], the 50% effective concentration (EC50) is more than 10000 nM. Also, the Emax under setting [1] was 91%.
With `COc1ccccc1-n1c(SCc2csc(-c3ccc(C)cc3)n2)nnc1-c1cccs1` [Example 36, 4-(2-Methoxy-phenyl)-3-thiophen-2-yl-5-(2-p-tolyl-thiazol-4-ylmethylsulfanyl)-4H-[1,2,4]triazole], the EC50 was more than 10000 nM. In addition, the Emax under setting [1] was found to be 83%.
`COc1ccccc1-n1c(SCc2csc(-c3ccc([N+](=O)[O-])cc3)n2)nnc1-c1cccs1` [Example 34, 4-(2-Methoxy-phenyl)-3-[2-(4-nitro-phenyl)-thiazol-4-ylmethylsulfanyl]-5-thiophen-2-yl-4H-[1,2,4]triazole]: the EC50 is more than 10000 nM. Also, the Emax under setting [1] is 120%.
As for `COc1ccccc1-n1c(SCc2cc(=O)n3ccc(C)cc3n2)nnc1-c1cccs1` [Example 51, 2-[4-(2-Methoxy-phenyl)-5-thiophen-2-yl-4H-[1,2,4]triazol-3-ylsulfanylmethyl]-8-methyl-pyrido[1,2-a]pyrimidin-4-one], the 50% effective concentration (EC50) came to 451 nM. Further, the Emax under setting [1] came out at 125%.
For `COc1ccccc1-n1c(OCc2csc(-c3ccccc3)n2)nnc1-c1cccs1` [Example 84] the same measures were 680 nM and 109%.
As to `COc1ccccc1-n1c(SCc2cc(=O)n3cc(C)ccc3n2)nnc1-c1sccc1C` [Example 12, 2-[4-(2-Methoxy-phenyl)-5-(3-methyl-thiophen-2-yl)-4H-[1,2,4]triazol-3-ylsulfanylmethyl]-7-methyl-pyrido[1,2-a]pyrimidin-4-one], the concentration giving a half-maximal response (EC50) stood at 1490 nM. Also, the Emax under setting [1] is 89%.
On to `COc1ccccc1-n1c(SCc2cc(=O)n3cc(C#N)ccc3n2)nnc1-c1cccs1` [Example 47, 2-[4-(2-Methoxy-phenyl)-5-thiophen-2-yl-4H-[1,2,4]triazol-3-ylsulfanylmethyl]-4-oxo-4H-pyrido[1,2-a]pyrimidine-7-carbonitrile], for which the concentration giving a half-maximal response (EC50) was 25.2 nM. The Emax under setting [1] was 54%.
As for `COc1ccccc1-n1c(SCc2ccc(C)cc2)nnc1-c1cccs1` [Example 75, 4-(2-Methoxy-phenyl)-3-(4-methyl-benzylsulfanyl)-5-thiophen-2-yl-4H-[1,2,4]triazole], the EC50 stood at 2740 nM. Under setting [1], the Emax amounted to 70%.
As for `COc1ccc(-c2nc(CSc3nnc(-c4cccs4)n3-c3ccccc3OC)co2)cc1` [Example 37, 4-(2-Methoxy-phenyl)-3-[2-(4-methoxy-phenyl)-oxazol-4-ylmethylsulfanyl]-5-thiophen-2-yl-4H-[1,2,4]triazole], the EC50 was found to be 3090 nM. Under setting [1], the Emax amounted to 138%.
In the case of `COc1ccccc1-n1c(SCc2cc(=O)n3cc(C)ccc3n2)nnc1-c1nccn1C` [Example 19, 2-[4-(2-Methoxy-phenyl)-5-(1-methyl-1H-imidazol-2-yl)-4H-[1,2,4]triazol-3-ylsulfanylmethyl]-7-methyl-pyrido[1,2-a]pyrimidin-4-one], the EC50 is more than 10000 nM. Further, under setting [1], the Emax stood at 57%.
As for `COc1ccccc1-n1c(SCc2cc(=O)n3cc(C)ccc3n2)nnc1-c1ccoc1` [Example 16, 2-[5-Furan-3-yl-4-(2-methoxy-phenyl)-4H-[1,2,4]triazol-3-ylsulfanylmethyl]-7-methyl-pyrido[1,2-a]pyrimidin-4-one], the half-maximal effective concentration (EC50) was found to be 96.8 nM. For the same molecule, under setting [1], the Emax was 84%.
Taken in the same sequence, the figures for `COc1ccccc1-n1c(SCc2cccc(C)c2)nnc1-c1cccs1` [Example 76, 4-(2-Methoxy-phenyl)-3-(3-methyl-benzylsulfanyl)-5-thiophen-2-yl-4H-[1,2,4]triazole] were 11300 nM and 159%.
Taken in the same sequence, the figures for `COc1ccccc1-n1c(SCc2csc(-c3ccc(Cl)cc3)n2)nnc1-c1cccs1` [Example 35, 3-[2-(4-Chloro-phenyl)-thiazol-4-ylmethylsulfanyl]-4-(2-methoxy-phenyl)-5-thiophen-2-yl-4H-[1,2,4]triazole] were more than 10000 nM and 90%.
Turning to `COc1ccccc1-n1c(SCc2csc(-c3ccccc3)n2)nnc1-c1cccs1` [Example 31, 4-(2-Methoxy-phenyl)-3-(2-phenyl-thiazol-4-ylmethylsulfanyl)-5-thiophen-2-yl-4H-[1,2,4]triazole], the EC50 worked out at 635 nM and the Emax stood at 133%.
For the molecule `Cc1cccc(-n2c(SCc3cc(=O)n4cc(C)ccc4n3)nnc2-c2cccs2)c1` [Example 21, 7-Methyl-2-(5-thiophen-2-yl-4-m-tolyl-4H-[1,2,4]triazol-3-ylsulfanylmethyl)-pyrido[1,2-a]pyrimidin-4-one], the concentration for a half-maximal effect (EC50) is 2370 nM. Under setting [1], the Emax worked out at 113%.
For the molecule `COc1ccccc1-n1c(SCc2cc(=O)n3cc(C)ccc3n2)nnc1-c1ccncc1` [Example 4, 2-[4-(2-Methoxy-phenyl)-5-pyridin-4-yl-4H-[1,2,4]triazol-3-ylsulfanylmethyl]-7-methyl-pyrido[1,2-a]pyrimidin-4-one], the EC50 was found to be 3090 nM. Moreover, under setting [1], the Emax came out at 80%.
Regarding `COc1ccccc1-n1c(SCc2nc(=O)c3ccc(Cl)cc3[nH]2)nnc1-c1cccs1` [Example 66, 7-Chloro-2-[4-(2-methoxy-phenyl)-5-thiophen-2-yl-4H-[1,2,4]triazol-3-ylsulfanylmethyl]-1H-quinazolin-4-one], the concentration for a half-maximal effect (EC50) was 482 nM. In addition, the Emax under setting [1] was 87%.
Turning to `COc1ccccc1-n1c(OCc2coc(-c3ccccc3)n2)nnc1-c1cccs1` [Example 81, 4-(2-Methoxy-phenyl)-3-(2-phenyl-oxazol-4-ylmethoxy)-5-thiophen-2-yl-4H-[1,2,4]triazole], the 50% effective concentration (EC50) amounted to 238 nM. Besides, the Emax under setting [1] was found to be 101%.
For `COc1ccccc1-n1c(SCc2nc(=O)c3cc(C(F)(F)F)ccc3[nH]2)nnc1-c1cccs1` [Example 64, 2-[4-(2-Methoxy-phenyl)-5-thiophen-2-yl-4H-[1,2,4]triazol-3-ylsulfanylmethyl]-6-trifluoromethyl-1H-quinazolin-4-one], the concentration for a half-maximal effect (EC50) turned out to be 365 nM. Further, under setting [1], the Emax was 92%.
As to `COc1ccccc1-n1c(SCc2cc(=O)n3cc(C)ccc3n2)nnc1-c1ccsc1` [Example 17, 2-[4-(2-Methoxy-phenyl)-5-thiophen-3-yl-4H-[1,2,4]triazol-3-ylsulfanylmethyl]-7-methyl-pyrido[1,2-a]pyrimidin-4-one], the 50% effective concentration (EC50) stood at 90 nM. Besides, the Emax under setting [1] is 109%.
Consider `COc1ccccc1-n1c(SCc2csc(-c3ccc(C(F)(F)F)cc3)n2)nnc1-c1cccs1` [Example 32, 4-(2-Methoxy-phenyl)-3-thiophen-2-yl-5-[2-(4-trifluoromethyl-phenyl)-thiazol-4-ylmethylsulfanyl]-4H-[1,2,4]triazole], for which the concentration for a half-maximal effect (EC50) is 1460 nM. Also, the Emax under setting [1] turned out to be 33%.
